# PubChem BioAssay AID1259408 (Genetic Toxicology Data Bank (GENE-TOX), 2018)
# Calls of active or inactive are those of the source. The rule behind the calls is not given here.
# Test system: GENE-TOX genotoxicity assays, various organisms and cells
# Assay: GENE-TOX mutagenicity studies
# Conditions: for call: Assay Type: In vivo carcinogenicity studies
# [1] = Species/Cell Type: Saccharomyces cerevisiae, Assay Type: Mitotic recombination or gene conversion, Assay Code: YEH-, Evaluation Type: Evaluation A (Pre-1980)
# [2] = Species/Cell Type: Salmonella typhimurium (one or more of the five standard strains: TA98, TA100, TA1535, TA1537, and TA1538), Assay Type: Histidine reverse gene mutation, Ames assay, Assay Code: SAL-, Evaluation Type: Evaluation A (Pre-1980)
# [3] = Species/Cell Type: Mammalian polychromatic erythrocytes, Assay Type: Micronucleus test, chromosome aberrations, Assay Code: MNTT, Evaluation Type: Evaluation A (Pre-1980)
# [4] = Species/Cell Type: Neurospora crassa, Assay Type: Aneuploidy, chromosome aberrations, Assay Code: NEN-, Evaluation Type: Evaluation A (Pre-1980)
# [5] = Species/Cell Type: Salmonella typhimurium (one or more of the five standard strains: TA98, TA100, TA1535, TA1537, and TA1538), Assay Type: Histidine reverse gene mutation, Ames assay, Assay Code: SALT, Evaluation Type: Evaluation A (Pre-1980)
# [6] = Species/Cell Type: Nonhuman, Assay Type: Sister-chromatid exchange (SCE) in vitro, Assay Code: SC2+D, Dose Response: With dose response, Evaluation Type: Evaluation B (Post-1980)
# [7] = Species/Cell Type: Salmonella typhimurium (one or more of the five standard strains: TA98, TA100, TA1535, TA1537, and TA1538), Assay Type: Histidine reverse gene mutation, Ames assay, Assay Code: SAL+, Evaluation Type: Evaluation A (Pre-1980)
# [8] = Species/Cell Type: Escherichia coli polA (W3119 vs P3478), Assay Type: Rec-assay, DNA effects (bacterial DNA repair), Assay Code: RE1T, Evaluation Type: Evaluation A (Pre-1980)
# [9] = Species/Cell Type: Salmonella typhimurium (one or more of the five standard strains: TA98, TA100, TA1535, TA1537, and TA1538), Assay Type: Histidine reverse gene mutation, Ames assay, Assay Code: SAL+*, Activation: With metabolic activation, Evaluation Type: Evaluation A (Pre-1980)
smiles,measurement,setting,value
Oc1c(Cl)c(Cl)c(Cl)c(Cl)c1Cl,mutagenic call,"Species/Cell Type: Bacillus subtilis (H17 vs M45), Assay Type: Rec-assay, spot test, DNA effects (bacterial DNA repair), Assay Code: REW+, Evaluation Type: Evaluation A (Pre-1980)",active; positive
same,mutagenic call,"Species/Cell Type: Drosophila melanogaster, Assay Type: Sex-linked recessive lethal gene mutation, Assay Code: SRLT, Evaluation Type: Evaluation A (Pre-1980)",no conclusion
same,mutagenic call,"Species/Cell Type: Mouse, Sex: Female, Assay Type: Spot test, gene mutation, Assay Code: MST-, Evaluation Type: Evaluation A (Pre-1980)",inactive; negative
same,mutagenic call,"Species/Cell Type: Saccharomyces cerevisiae, Assay Type: Forward gene mutation, Assay Code: YEF+, Evaluation Type: Evaluation A (Pre-1980)",active; positive
same,mutagenic call,"Species/Cell Type: Saccharomyces cerevisiae, Assay Type: Mitotic recombination or gene conversion, Assay Code: YEC+, Evaluation Type: Evaluation A (Pre-1980)",active; positive
same,mutagenic call,[1],inactive; negative
same,mutagenic call,[2],inactive; negative
same,mutagenic call,"Species/Cell Type: Salmonella typhimurium, Assay Type: Forward and reverse gene mutation, host-mediated assay, Assay Code: HMA-, Evaluation Type: Evaluation A (Pre-1980)",inactive; negative
same,mutagenic call,"Species/Cell Type: Syrian hamster embryo (SA7/SHE) cells, Assay Type: Cell transformation, viral enhanced, Assay Code: CT7+, Evaluation Type: Evaluation A (Pre-1980)",active; positive
OC1C=Cc2cc3ccc4cccc5ccc(c2C1O)c3c45 (stereo not drawn),mutagenic call,"Species/Cell Type: Mouse prostate cells, Assay Type: Cell transformation, Assay Code: CTM+, Evaluation Type: Evaluation A (Pre-1980)",active; positive
Oc1ccc(Cl)c(O)c1,mutagenic call,[3],no conclusion
same,mutagenic call,[4],inactive; negative
CC(=O)CCCCn1c(=O)c2c(ncn2C)n(C)c1=O,mutagenic call,"Species/Cell Type: Human, Sex: Male, Assay Type: Sperm morphology, Assay Code: SPHT, Evaluation Type: Evaluation A (Pre-1980)",no conclusion
Cc1cccc(N(C)C(=S)Oc2ccc3ccccc3c2)c1,mutagenic call,[4],inactive; negative
NC(=O)N1c2ccccc2C2OC2c2ccccc21 (stereo not drawn),mutagenic call,"Species/Cell Type: Human lymphocytes, Assay Type: Sister-chromatid exchange (SCE) in vitro, Assay Code: SCLT, Evaluation Type: Evaluation B (Post-1980)",no conclusion
same,mutagenic call,[5],no conclusion
COc1cc2c(c(O)c1OC)C13CCC(OC)CC1N(CC3)C2 (stereo not drawn),mutagenic call,"Species/Cell Type: Mammalian polychromatic erythrocytes, Assay Type: Micronucleus test, chromosome aberrations, Assay Code: MNT+, Evaluation Type: Evaluation B (Post-1980)",active; positive
C1=CC2OC2c2cc3ccc4cccc5ccc(c21)c3c45 (stereo not drawn),mutagenic call,"Species/Cell Type: Chinese hamster lung (V79) cells, Assay Type: Forward gene mutation at the HPRT or ouabain locus, Assay Code: V79-, Evaluation Type: Evaluation A (Pre-1980)",inactive; negative
same,call,"Species/Cell Type: Nonhuman, Assay Code: CCG+L, Evaluation Type: Evaluation A (Pre-1980)",active; positive
same,mutagenic call,[6],active; positive
same,mutagenic call,[7],active; positive
[N-]=[N+]=CC(=O)OC[C@H](N)C(=O)O,mutagenic call,"Species/Cell Type: Escherichia coli WP2, Assay Type: Tryptophan reverse gene mutation, Assay Code: WP2+, Evaluation Type: Evaluation A (Pre-1980)",active; positive
same,mutagenic call,"Species/Cell Type: Escherichia coli polA (W3119 vs P3478), Assay Type: Rec-assay, DNA effects (bacterial DNA repair), Assay Code: RE1+, Evaluation Type: Evaluation A (Pre-1980)",active; positive
same,call,"Species/Cell Type: Nonhuman, Assay Code: CCG+, Evaluation Type: Evaluation A (Pre-1980)",active; positive
same,mutagenic call,[6],active; positive
same,mutagenic call,[7],active; positive
same,mutagenic call,"Species/Cell Type: Syrian hamster embryo (SHE) cells, Assay Type: Cell transformation, clonal assay, Assay Code: CTC+, Evaluation Type: Evaluation A (Pre-1980)",active; positive
CN[C@H]1[C@@H](O[C@@H]2C3CC#CC4O[C@@]4(C4COC(=O)O4)C#CC3=C[C@H]2OC(=O)c2c(O)ccc3c(C)cc(OC)cc23)O[C@H](C)[C@H](O)[C@@H]1O (stereo partly drawn),mutagenic call,"Species/Cell Type: Escherichia coli WP2, Assay Type: Tryptophan reverse gene mutation, Assay Code: WP2+D, Dose Response: With dose response, Evaluation Type: Evaluation A (Pre-1980)",active; positive
same,mutagenic call,"Species/Cell Type: Escherichia coli WP2 UVRA, Assay Type: Tryptophan reverse gene mutation, Assay Code: WPU+D, Dose Response: With dose response, Evaluation Type: Evaluation A (Pre-1980)",active; positive
same,mutagenic call,"Species/Cell Type: Human diploid fibroblasts, Assay Type: Unscheduled DNA synthesis (UDS) in vitro, DNA effects, Assay Code: UDH+D, Dose Response: With dose response, Evaluation Type: Evaluation A (Pre-1980)",active; positive
same,mutagenic call,[6],active; positive
COc1cc2c3cc1Oc1cc(ccc1O)C[C@@H]1c4c(cc(OC)c(O)c4Oc4ccc(cc4)C[C@@H]3N(C)CC2)CC[N+]1(C)C,mutagenic call,[8],no conclusion
same,mutagenic call,[5],no conclusion
CCCCN(CC(O)CCO)N=O (stereo not drawn),mutagenic call,[9],active; positive
Cc1c2ccncc2c(C)c2c1[nH]c1ccc(N)cc12,mutagenic call,"Species/Cell Type: Chinese hamster ovary (CHO) cells, Assay Type: Forward gene mutation at the HPRT locus, Assay Code: CHO+, Evaluation Type: Evaluation B (Post-1980)",active; positive
c1ccc2cc3ccccc3cc2c1,mutagenic call,"Species/Cell Type: Escherichia coli polA (W3110 vs P3478), Assay Type: Rec-assay, DNA effects (bacterial DNA repair), Assay Code: RE2-, Evaluation Type: Evaluation A (Pre-1980)",inactive; negative
same,mutagenic call,[8],no conclusion
same,mutagenic call,"Species/Cell Type: Fischer rat embryo (RLV/1706) cells, Assay Type: Cell transformation, viral enhanced, Assay Code: CTRT, Evaluation Type: Evaluation A (Pre-1980)",no conclusion
same,mutagenic call,"Species/Cell Type: Human diploid fibroblasts, Assay Type: Unscheduled DNA synthesis (UDS) in vitro, DNA effects, Assay Code: UDH-*, Activation: With metabolic activation, Evaluation Type: Evaluation A (Pre-1980)",inactive; negative
same,mutagenic call,[3],no conclusion
same,mutagenic call,"Species/Cell Type: Mouse (BALB/c-3T3) cells, Assay Type: Cell transformation, Assay Code: CTB-, Evaluation Type: Evaluation A (Pre-1980)",inactive; negative
same,mutagenic call,"Species/Cell Type: Mouse embryo (AKR/ME) cells, Assay Type: Cell transformation, Assay Code: CTK-, Evaluation Type: Evaluation A (Pre-1980)",inactive; negative
same,mutagenic call,"Species/Cell Type: Mouse, Sex: Male, Assay Type: Sperm morphology, Assay Code: SPI-, Evaluation Type: Evaluation A (Pre-1980)",inactive; negative
same,mutagenic call,"Species/Cell Type: Nonhuman, Assay Type: Chromosome aberrations in vitro, Assay Code: CY&-, Evaluation Type: Evaluation A (Pre-1980)",inactive; negative
same,call,"Species/Cell Type: Nonhuman, Assay Code: CCGT, Evaluation Type: Evaluation A (Pre-1980)",no conclusion
same,mutagenic call,[6],active; positive
same,mutagenic call,"Species/Cell Type: Nonhuman, Assay Type: Sister-chromatid exchange (SCE) in vitro, Assay Code: SC2T, Evaluation Type: Evaluation A (Pre-1980)",no conclusion
same,mutagenic call,"Species/Cell Type: Nonhuman, Assay Type: Sister-chromatid exchange (SCE) in vivo, Assay Code: SC3-, Evaluation Type: Evaluation A (Pre-1980)",inactive; negative
same,mutagenic call,"Species/Cell Type: Nonhuman, Assay Type: Sister-chromatid exchange (SCE) in vivo, Assay Code: SC3T, Evaluation Type: Evaluation B (Post-1980)",no conclusion
same,mutagenic call,"Species/Cell Type: Rat primary hepatocytes, Assay Type: Unscheduled DNA synthesis (UDS) in vitro, DNA effects, Assay Code: UDP-, Evaluation Type: Evaluation A (Pre-1980)",inactive; negative
same,mutagenic call,[1],inactive; negative
same,mutagenic call,[2],inactive; negative
same,mutagenic call,"Species/Cell Type: Salmonella typhimurium, Assay Type: Forward and reverse gene mutation, host-mediated assay, Assay Code: HMAT, Evaluation Type: Evaluation A (Pre-1980)",no conclusion
same,mutagenic call,"Species/Cell Type: Syrian hamster embryo (SHE) cells, Assay Type: Cell transformation, clonal assay, Assay Code: CTC-, Evaluation Type: Evaluation A (Pre-1980)",inactive; negative
Cc1cc(Cl)ccc1OCC(=O)O,mutagenic call,"Species/Cell Type: Drosophila melanogaster, Assay Type: Aneuploidy, sex chromosome gain, chromosome aberrations, Assay Code: DAG-M-F, Evaluation Type: Evaluation A (Pre-1980)",inactive; negative
same,mutagenic call,"Species/Cell Type: Drosophila melanogaster, Assay Type: Aneuploidy, whole sex chromosome loss, chromosome aberrations, Assay Code: DAC-M-F, Evaluation Type: Evaluation A (Pre-1980)",inactive; negative
same,mutagenic call,"Species/Cell Type: Drosophila melanogaster, Assay Type: Sex-linked recessive lethal gene mutation, Assay Code: SRL+, Evaluation Type: Evaluation A (Pre-1980)",active; positive
same,mutagenic call,"Species/Cell Type: Saccharomyces cerevisiae, Assay Type: Reverse gene mutation, Assay Code: YER+, Evaluation Type: Evaluation A (Pre-1980)",active; positive
same,mutagenic call,"Species/Cell Type: Salmonella typhimurium, Serratia marcesens, Assay Type: Forward and reverse gene mutation, host-mediated assay, Assay Code: HM2-, Evaluation Type: Evaluation A (Pre-1980)",inactive; negative
O=C1CCCc2c1ccc1c2ccc2ccccc21,mutagenic call,[9],active; positive
O=[N+]([O-])c1ccc(Oc2ccc(C(F)(F)F)cc2[N+](=O)[O-])cc1,mutagenic call,"Species/Cell Type: Saccharomyces cerevisiae, Assay Type: Mitotic recombination or gene conversion, Assay Code: YEC-, Evaluation Type: Evaluation A (Pre-1980)",inactive; negative
c1cc2c3c(c1)cc1ccc4cccc5cc(c3c1c45)CC2,mutagenic call,[9],active; positive
O=C1c2cccc(O)c2C(=O)c2c(O)cc(CO)cc21,mutagenic call,"Species/Cell Type: Salmonella typhimurium (one or more of the five standard strains: TA98, TA100, TA1535, TA1537, and TA1538), Assay Type: Histidine reverse gene mutation, Ames assay, Assay Code: SAL+/-*, Activation: With metabolic activation, Evaluation Type: Evaluation A (Pre-1980)","inactive; positive without activation, negative with activation"
